Here are results for 13 compounds from paper PMC11047580, “Design and Synthesis of Novel Amino and Acetamidoaurones with Antimicrobial Activities” (Antibiotics, 2024).

In brackets after ≈: the same amount, converted by molar mass. A value given as a limit tells only on which side of the number the result lay.

Data set [1] is described as follows: Cytotoxic assay (resazurin). To be noted: human, IMR-90 normal lung fibroblasts.
Data set [2] deals with P. aeruginosa ATCC9027. The experiment in a line: MIC assay. The format is cell-based, Pseudomonas aeruginosa. To be noted: Pseudomonas aeruginosa, ATCC9027; two-fold serial dilutions in liquid media; n = 2–3.
Data set [3] can be described thus: Cytotoxic assay (resazurin). The note with it: human, Caco-2. In general terms: Alamar Blue is a resazurin reagent that responds to reducing activity.
The nature of data set [4]: Cytotoxic assay (resazurin). The note with it: human, A498 kidney epithelial cells.
Data set [5] is described as follows: Cytotoxic assay (resazurin). To be noted: human, BEAS-2B normal lung epithelial cells.
A short description of data set [6]: Cytotoxic assay (resazurin). The note with it: human, HepG2 liver cells.
Data set [7] concerns B. subtilis ATCC6633. In words: MIC assay. The data set is classed as cell-based, Bacillus subtilis. The note with it: Bacillus subtilis, ATCC6633; two-fold serial dilutions in liquid media; n = 2–3.
In data set [8] the test system is S. aureus ATCC6538P. The experiment in a line: MIC assay. The format is cell-based, Staphylococcus aureus. To be noted: Staphylococcus aureus, ATCC6538P; two-fold serial dilutions in liquid media; n = 2–3.
Data set [9] is described as follows: Cytotoxic assay (resazurin). To be noted: human, HaCaT normal epidermal keratinocytes.
The test system of data set [10] is E. coli ATCC8739. In words: MIC assay. The format is cell-based, Escherichia coli. To be noted: two-fold serial dilutions in liquid media, n = 2–3; for MIC: Escherichia coli, ATCC8739.
Data set [11] has as its system M. smegmatis ATCC700084. In words: MIC assay (REMA). The format is cell-based, Mycobacterium smegmatis. The note with it: Mycolicibacterium smegmatis, ATCC700084, REMA microdilution, n = 2–3.
Data set [12] concerns C. albicans DSM10697. The experiment in a line: MIC assay. The format is cell-based, Candida albicans. The note with it: two-fold serial dilutions in liquid media, n = 2–3; for MIC: Candida albicans, DSM10697.
Data set [13] can be described thus: Cytotoxic assay, summary over the six human cell types. To be noted: human, 48 h exposure.
Data set [14] concerns human cells (A498, BEAS-2B, Caco-2, HaCaT, HepG2, IMR-90). Described as above. The note with it: for Highest TI: highest CC50 on human cells divided by MIC on S. aureus; for Lowest TI: lowest CC50 on human cells divided by MIC on S. aureus.
Data set [15] deals with B. subtilis, S. aureus, E. coli, P. aeruginosa, M. smegmatis, C. albicans. The experiment in a line: First MIC screening, summary over the species of Table 2. The data set is classed as cell-based. The note with it: discussion of the first screening.
Setting [16] is: Highest CC50, highest of the six human cell types.
Setting [17] is: Lowest CC50, lowest of the six human cell types.
The mark [18] stands for this setting: Mean CC50, mean over the six human cell types.

Broadly, the CC50 is the concentration giving 50% cytotoxicity. A low value points to harm at low concentration. Broadly, the MIC is the lowest concentration that inhibits growth of the organism. A lower MIC goes with greater potency. One may read the melting point as the temperature of the solid-liquid transition. With `Nc1ccc2c(c1)C(=O)/C(=C/c1cccc(OCc3ccccc3)c1)O2` [Compound 12, (Z)-5-amino-2-(3-(benzyloxy)benzylidene)benzofuran-3(2H)-one], the melting point is 132.6 °C. In addition, the CC50 at 48 h in data set [1] was determined as 42.4 µM. Besides, the MIC in [2] is above 100 µM. Further, the CC50 at 48 h in data set [3] worked out at 112 µM. Moreover, the half-maximal cytotoxic concentration (CC50) at 48 h in [4] is 152 µM. It took 74.6 µM to reach half-maximal cytotoxicity in data set [5] (CC50 at 48 h). For the same compound, it took 343 µM to reach half-maximal cytotoxicity in data set [6] (CC50 at 48 h). In addition, the MIC in data set [7] turned out to be 25 µM (≈ 8.58 µg/mL). Inhibition of growth in data set [8] (MIC) required 100 µM (≈ 34.3 µg/mL). Moreover, it took 51.3 µM to reach half-maximal cytotoxicity in data set [9] (CC50 at 48 h). In addition, in [10], the MIC was above 100 µM and the “MIC E. coli ATCC8739” value is “inactive”. In data set [11], this compound came in with a minimum inhibitory concentration (MIC) of 50 µM (≈ 17.2 µg/mL). Moreover, in [12], the MIC was above 100 µM and the “MIC C. albicans DSM10697” value was “inactive”. Moreover, the CC50 at 48 h in data set [13] (setting [16]) amounted to 343 µM. In data set [13] (setting [17]), this compound gave a CC50 at 48 h of 42.4 µM. The compound also showed a CC50 at 48 h in data set [13] (setting [18]) of 129 µM. Further, in [14], the “Highest TI” value was 3.4 and the “Lowest TI” value turned out to be 0.4.

Take `CC(=O)Nc1ccc2c(c1)C(=O)/C(=C/c1cccc(OC(C)C)c1)O2` [Compound 19, (Z)-N-(2-(3-isopropoxybenzylidene)-3-oxo-2,3-dihydrobenzofuran-5-yl)acetamide]: the “activity against tested micro-organisms (in words)” value (from here on “activity”) in data set [15] is “weak or no activity”. Further, the MIC in data set [2] is 25 µM (≈ 8.43 µg/mL); in [7], above 100 µM; in data set [8], above 100 µM; in data set [10] it was above 100 µM; in data set [11], above 100 µM; in data set [12], above 100 µM.

Compound `Nc1ccc2c(c1)C(=O)/C(=C/c1cccc(Oc3ccccc3)c1)O2` [Compound 16, (Z)-5-amino-2-(3-phenoxybenzylidene)benzofuran-3(2H)-one] gave a melting point of 145.6 °C. In data set [1], this compound registered a CC50 at 48 h of 116 µM. This compound registered an MIC in data set [2] above 100 µM. The same compound had a CC50 at 48 h in data set [3] of 132 µM. The compound also had a CC50 at 48 h in data set [4] of 452 µM. Besides, half-maximal cytotoxicity in data set [5] (CC50 at 48 h) was put at 130 µM. Also, the CC50 at 48 h in data set [6] stood at 398 µM. The MIC in [7] came out at 25 µM (≈ 8.23 µg/mL). The compound further had an MIC in [8] of 25 µM (≈ 8.23 µg/mL). The compound also showed a cytotoxic concentration (CC50) at 48 h in data set [9] of 80.4 µM. Besides, in data set [10], the lowest concentration to inhibit growth (MIC) was 25 µM (≈ 8.23 µg/mL). In data set [11], this compound came in with an MIC of 50 µM (≈ 16.5 µg/mL). In [12], the MIC is above 100 µM and the “MIC C. albicans DSM10697” value was “inactive”. Further, in data set [13] (setting [16]), it took 452 µM to reach half-maximal cytotoxicity (CC50 at 48 h). In data set [13] (setting [17]), this compound displayed a CC50 at 48 h of 80.4 µM. This compound came in with a CC50 at 48 h in data set [13] (setting [18]) of 218 µM. For the same compound, in data set [14], the “Highest TI” value was found to be 18.0 and the “Lowest TI” value is listed as 3.2.

`CC(C)Oc1cccc(/C=C2\Oc3ccc(N)cc3C2=O)c1` [Compound 22, (Z)-5-amino-2-(3-isopropoxybenzylidene)benzofuran-3(2H)-one] yielded a melting point of 198.4 °C. The “activity” value in [15] is “weak or no activity”. Also, the MIC in data set [2] is above 100 µM. In data set [7], this compound showed an MIC above 100 µM. Moreover, in data set [8], the MIC is above 100 µM. Besides, the MIC in data set [10] is above 100 µM. Besides, in [11], the MIC is above 100 µM. In addition, the minimal inhibitory concentration (MIC) in [12] was above 100 µM.

Compound `COc1cccc(/C=C2\Oc3ccc(NC(C)=O)cc3C2=O)c1` [Compound 5, (Z)-N-(2-(3-methoxybenzylidene)-3-oxo-2,3-dihydrobenzofuran-5-yl)acetamide] gave a melting point of 204.2 °C. The same compound registered an MIC in data set [2] above 100 µM. For the same compound, the MIC in [7] was above 100 µM. In addition, it took 100 µM (≈ 30.9 µg/mL) to inhibit growth in data set [8] (MIC). The same compound registered an MIC in data set [10] above 100 µM. Further, inhibition of growth in data set [11] (MIC) required 100 µM (≈ 30.9 µg/mL). The compound also registered an MIC in [12] above 100 µM.

With `CC(C)Oc1ccccc1/C=C1\Oc2ccc(N)cc2C1=O` [Compound 21, (Z)-5-amino-2-(2-isopropoxybenzylidene)benzofuran-3(2H)-one], the “activity” value in data set [15] is reported as “weak or no activity”. The MIC in data set [2], in data set [7], in data set [8], in [10], in data set [11] and in data set [12] was above 100 µM throughout.

In the case of `Nc1ccc2c(c1)C(=O)/C(=C/c1ccc(Oc3ccccc3)cc1)O2` [Compound 17, (Z)-5-amino-2-(4-phenoxybenzylidene)benzofuran-3(2H)-one], the melting point is 170.6 °C. Further, in data set [2], the MIC is above 100 µM. The minimal inhibitory concentration (MIC) in data set [7] is above 100 µM. Moreover, the MIC in data set [8] is above 100 µM. Moreover, the minimal inhibitory concentration (MIC) in data set [10] is above 100 µM. In data set [11], this compound registered an MIC above 100 µM. Further, in data set [12], the MIC is above 100 µM.

On to `CC(=O)Nc1ccc2c(c1)C(=O)/C(=C/c1ccc(Oc3ccccc3)cc1)O2` [Compound 15, (Z)-N-(3-oxo-2-(4-phenoxybenzylidene)-2,3-dihydrobenzofuran-5-yl)acetamide], for which the melting point was 213.5 °C. The CC50 at 48 h in [1] is above 500 µM. The compound also came in with an MIC in data set [2] above 100 µM. Also, in data set [3], half-maximal cytotoxicity (CC50 at 48 h) was put at 137 µM. The compound also gave a CC50 at 48 h in data set [4] of 146 µM. In addition, the CC50 at 48 h in data set [5] was 110 µM. Also, the half-maximal cytotoxic concentration (CC50) at 48 h in data set [6] was above 500 µM. The compound also had an MIC in data set [7] of 50 µM (≈ 18.6 µg/mL). This compound came in with an MIC in [8] of 100 µM (≈ 37.1 µg/mL). In data set [9], the CC50 at 48 h was above 500 µM. In addition, in data set [10], the MIC is above 100 µM and the “MIC E. coli ATCC8739” value is “inactive”. In [11], this compound returned an MIC of 50 µM (≈ 18.6 µg/mL). For the same compound, in data set [12], the MIC was above 100 µM and the “MIC C. albicans DSM10697” value is “inactive”. The compound further had a CC50 at 48 h in data set [13] (setting [16]) above 500 µM. The compound further displayed a CC50 at 48 h in data set [13] (setting [17]) of 110 µM. Also, in [14], the “Highest TI” value is above 5 and the “Lowest TI” value is 1.0.

Consider `CC(=O)Nc1ccc2c(c1)C(=O)/C(=C/c1ccc(OCc3ccccc3)cc1)O2` [Compound 11, (Z)-N-(2-(4-(benzyloxy)benzylidene)-3-oxo-2,3-dihydrobenzofuran-5-yl)acetamide], for which the melting point was determined as 212.8 °C. In addition, the MIC in [2] was above 100 µM. Also, the MIC in data set [7] was above 100 µM. The same compound gave an MIC in data set [8] above 100 µM. In addition, the MIC in data set [10] was above 100 µM. For the same compound, the minimal inhibitory concentration (MIC) in data set [11] is above 100 µM. The same compound showed an MIC in data set [12] above 100 µM.

`CC(=O)Nc1ccc2c(c1)C(=O)/C(=C/c1ccccc1OC(C)C)O2` [Compound 18, (Z)-N-(2-(2-isopropoxybenzylidene)-3-oxo-2,3-dihydrobenzofuran-5-yl)acetamide]: the “activity” value in data set [15] is given as “weak or no activity”. Moreover, the MIC in data set [2], in [7], in data set [8], in [10], in data set [11] and in [12] was above 100 µM in each case.

Turning to `CC(=O)Nc1ccc2c(c1)C(=O)/C(=C/c1cccc(Oc3ccccc3)c1)O2` [Compound 14, (Z)-N-(3-oxo-2-(3-phenoxybenzylidene)-2,3-dihydrobenzofuran-5-yl)acetamide], the melting point was found to be 196.4 °C. Also, the MIC in data set [2] was above 100 µM. Besides, the MIC in data set [7] is above 100 µM. In addition, the MIC in [8] is above 100 µM. In data set [10], this compound came in with an MIC above 100 µM. This compound returned an MIC in data set [11] above 100 µM. For the same compound, the MIC in data set [12] was above 100 µM.

In the case of `CC(C)Oc1ccc(/C=C2\Oc3ccc(N)cc3C2=O)cc1` [Compound 23, (Z)-5-amino-2-(4-isopropoxybenzylidene)benzofuran-3(2H)-one], the melting point is above 350 °C. This compound also returned an MIC in data set [2] above 100 µM. The compound further registered an MIC in data set [7] above 100 µM. In addition, the MIC in data set [8] is above 100 µM. The compound further showed an MIC in data set [10] above 100 µM. The MIC in data set [11] is above 100 µM. In data set [12], this compound displayed an MIC above 100 µM.

Compound `Nc1ccc2c(c1)C(=O)/C(=C/c1ccc(F)cc1)O2` [Compound 28, (Z)-5-amino-2-(4-fluorobenzylidene)benzofuran-3(2H)-one] registered a melting point of 164.4 °C. The compound further gave an MIC in [2] above 100 µM. In data set [7], this compound had a minimum inhibitory concentration (MIC) above 100 µM. Also, the MIC in data set [8] is above 100 µM. The same compound had an MIC in [10] above 100 µM. Also, the MIC in data set [11] is above 100 µM. Besides, the MIC in data set [12] is above 100 µM.
